Data as given in PMC5556019, “Targeting Apolipoprotein E/Amyloid β Binding by Peptoid CPO_Aβ17-21 P Ameliorates Alzheimer’s Disease Related Pathology and Cognitive Decline” (Scientific Reports, 2017).
Numbered stars: 1 amine (or outer) side, 2 acyl side, 3 side chain; on linkers, the order of the positions; unused ones are H or OH. Bridge positions count the residues as written; N and C are the ends. Square brackets hold non-standard residues; d marks the D form. Peptide text beside a SMILES is read from it. ξ: configuration not given here. N(CH2CH2CO)Gly = O=C(CN(CCC(=O)[*:3])[*:1])[*:2]; Nphe = O=C(O)CNCc1ccccc1; Nleu = CC(C)CNCC(=O)O; ξP = O=C(O)C1CCCN1; Sar = CNCC(=O)O

How the values were obtained:
APP/PS1 Tg mice [1] = assay: Brain Aβ and oligomeric Aβ levels by ELISA and western blot; format: in vivo, mouse
Method: (§1) The effect of CPO_Aβ17-21 P on Aβ deposition was tested in APP/PS1 Tg mice with plaque pathology. This AD mouse model develops plaque pathology from the age of 3 months. Animals were divided into two groups and received intraperitoneally (i.p.) injections of 0.2 mg of CPO_ Aβ17–21 P per mouse in sterile saline (n = 11, 5 male, 6 female) or saline alone (n = 10, 5 male, 5 female) as a control twice weekly for 4 months, beginning at age 3 months. During the treatment, veterinary staff monitored animals for any signs of toxicity, such as changes in body weight, physical appearance, and altered behavior. Animals were sacrificed a week after administration of the last treatment dose and behavioral testing. All mouse care and experimental procedures were compliant with guidelines of animal experimentation and were approved by the Institutional Animal Care and Use Committee at the New York University School of Medicine.
Brains were weighed and homogenized (10% w/v) in tissue homogenization buffer (20 mM Tris base, pH 7.4, 250 mM sucrose, 1 mM EDTA, 1 mM EGTA) with […] phenylmethylsulphonyl fluoride, complete protease inhibitor cocktail and PhosSTOP phosphatase inhibitor cocktail (Roche, Indianapolis, IN, USA) added immediately before homogenization. The extraction of soluble Aβ and total Aβ was according to the method we have published previously, [44]. Brain homogenates were mixed with an equal volume of cold 0.4% diethylamine (DEA)/100 mM NaCl, and subsequently centrifuged at 100,000 × g for 1 hr at 4 °C. The supernatant was neutralized with 1/10 volume of 0.5 M Tris, pH 6.8, flash-frozen on dry ice and stored at −80 °C until used for ELISA analysis as soluble Aβ fraction. […] Soluble and total Aβ levels in the brain were measured by sandwich ELISA which used 6E10 monoclonal antibody as a capture antibody and two detection polyclonal antibodies R162 and R165 specific for Aβ40 and Aβ42, respectively. […]
Oligomeric Aβ (o-Aβ) levels were determined with the Biosensis Oligomeric Amyloid-Beta ELISA kit (Biosensis, Thebarton, South Australia) following the manufacturer’s instructions. In brief, the unknown concentrations of o-Aβ in samples were measured against a standard containing different concentrations of o-Aβ. […] The TMB reaction was stopped and the absorbance of each well was read at 450 nm. The standards provided a linear curve and the best-fit line determined by linear regression were used to calculate the concentration of Aβ oligomers in the samples
Brain homogenates were centrifuged at 100,000 × g for 1 hr at 4 °C. The supernatants were collected and the total protein concentrations were determined by the bicinchoninic acid assay (BCA; Pierce, Rockford, IL). […]

APP/PS1 Tg mice [2] = assay: Cognitive tests (radial arm maze, object recognition); format: in vivo; conditions: 0.2 mg per mouse i.p. twice weekly for 4 months
Method: as §1, with “Medicine. […]” for “Medicine.”
Spatial learning (working memory) was tested using a radial arm maze with eight radial 30-cm-long arms originating from the central space. […] The number of errors (entry into previously visited arms) was recorded during each session.
The spontaneous object recognition test measures short-term memory. […] The amount of time spent exploring each object within a defined zone of the area was automatically recorded by a tracking system (San Diego Instruments, San Diego, CA).

Compound: CC(C)CN1CC(=O)N2CCCC2C(=O)N(Cc2ccccc2)CC(=O)N(Cc2ccccc2)CC(=O)N(C)CC(=O)N(CC(N)=O)CCC1=O (stereo not drawn) [CPO_Aβ17-21 P] ([Nleu][ξP][Nphe][Nphe][Sar][N(CH2CH2CO)Gly]-NH2; lactam N-6)
- Aβ42 in the insoluble (formic acid) brain fraction (APP/PS1 Tg mice [1]; ELISA, p < 0.0001 versus vehicle): Reduction
- Aβ40 in the insoluble (formic acid) brain fraction (APP/PS1 Tg mice [1]; ELISA, p < 0.001 versus vehicle): Reduction
- Aβ oligomeric species by western blot (APP/PS1 Tg mice [1]; anti-amyloid antibody 4G8, brain homogenates, p < 0.05 versus vehicle): Reduction
- Aβ oligomeric species by ELISA (APP/PS1 Tg mice [1]; brain homogenates, p < 0.05 versus vehicle): Reduction
- radial arm maze, number of errors (APP/PS1 Tg mice [2]; p < 0.01 two-way ANOVA treatment effect): significant cognitive improvement
- novel object recognition (APP/PS1 Tg mice [2]; p = 0.016): significant cognitive improvement
